Source: US20250295615A1 (BOARD OF REGENTS, THE UNIVERSITY OF TEXAS SYSTEM, priority 2021, published 2025)

Legend:
prostate tumor = conditions: 7-year period, men taking the drug daily; cited from earlier work
prostate cancer = conditions: mouse, in vivo; cited from earlier work
[1] = human, in vivo
Protocol: (§1) Study Outcomes: Safety was compared to evaluate the number, frequency, duration, and relation of toxicity events to CURC and UA, as defined by the Common Terminology Criteria for Adverse Events (CTCAE) v 4.03. […] We also investigated the impact on the microbiome in a paired analysis for change and overall theme of imputed bacterial function.
Measurement of Compounds: The compounds and their metabolites were measured using an UHPLC-MS/MS system performed on a Hybrid quadrupole-Orbitrap mass spectrometer (Q Exactive, Thermo Scientific, Waltham, MA, USA) hyphenated with a Thermo Scientific Vanquish Flex ultrahigh-pressure liquid chromatography (UHPLC) system via electrospray ionization source. For the parallel reaction monitoring (PRM) scan, the resolution, auto gain control (AGC) target, and maximum injection time (IT) were set at 17500, 2e5, and 100 ms. The All-Ion Fragmentation (AIF) scan consisted of a scan range of m/z 100-750 with NCE 10. The resolution, AGC target, and maximum IT for the AIF scan were set at 70000, 3e6, and 200 ms, respectively.
Statistical Analysis: Demographics between groups was compared using the Fischer Exact test for categorical variables and the Student's t-test for continuous variables. Safety laboratory values were analyzed using a paired t-test for differences, with significance set at p<0.05. ANOVA was used to compare plasma levels of UA, CURC, and CURC metabolites. Least significant difference (LSD) was used as the post hoc analysis test to compare values between groups.

[2] = Phase 1 clinical trial, safety laboratory values (week 2 minus baseline); assay type: in vivo, human
Description: Laboratory Safety values. We perform laboratory analysis at baseline and at the end of the two-week study. We then subtracted the values (week 2-baseline) to obtain the differences for each participant.

[3] = human, in vivo; remark: listed apart in the source
Description: Population and Recruitment: We recruited healthy men enrolled in the SABOR study, which is a community-based prostate cancer screening cohort. The San Antonio Biomarkers of Risk (SABOR) study cohort was funded by the National Cancer Institute Early Detection Research Network-sponsored Clinical and Epidemiologic Validation Center since its nascent enrollment in 2000 (IRB #HSC20000030H). A separate IRB was approved for the phase 1 trial (IRB #HSC20190940H). Subjects had no prior diagnosis of prostate cancer at the time of enrollment and varied prostate cancer risk profiles. We used the local UT Health San Antonio Data Safety and Monitoring Board (DSMB).
as §1
Common Terminology Criteria for Adverse Events (CTCAE) v 4.03. […] A creatinine rise would indicate kidney dysfunction.

[4] = week 2 minus baseline, median (IQR), n = 6

Row | Structure (SMILES) | Plasma levels in words (FIG. 2) [1] | Difference in ALT [2, 4] | Difference in AST [2, 4] | Difference in Albumin [2, 4] | Difference in Alkaline Phosphatase [2, 4] | Difference in Bicarbonate [2, 4] | Difference in Bilirubin [2, 4] | Difference in Calcium [2, 4] | Difference in Chloride [2, 4] | Difference in Creatinine [2, 4] | Difference in Glomerular Filtration Rate (GFR) [2, 4] | Difference in Hematocrit [2, 4] | Difference in Hemoglobin [2, 4] | Difference in Platelets [2, 4] | Difference in Sodium [2, 4] | also measured
1 | CC(C)(C)NC(=O)[C@H]1CC[C@H]2[C@@H]3CC[C@H]4NC(=O)C=C[C@]4(C)[C@H]3CC[C@]12C [Finasteride] |  |  |  |  |  |  |  |  |  |  |  |  |  |  |  | Reduction in prostate tumor prevalence (prostate tumor): 24.8%
2 | C[C@H]1[C@H](C)CC[C@]2(C(=O)O)CC[C@]3(C)C(=CC[C@@H]4[C@@]5(C)CC[C@H](O)C(C)(C)[C@@H]5CC[C@]43C)[C@H]12 [Ursolic Acid, ursolic acid] | modest absorption of ursolic acid | 1.5 (1.0 to 12.8) | 2.0 (−1.3 to 3.3) | 0.0 (−0.1 to 0.2) | 2.5 (−2.5 to 5.0) | 1.0 (−1.5 to 3.0) | 0.0 (−0.08 to 0.15) | 0.03 (−0.05 to 0.48) | −1.0 (−2.75 to 1.75) | −0.08 (−0.33 to 0.12) | −3.5 (−10.3 to 3.5) | 1.55 (−0.85 to 2.85) | 0.20 (−0.33 to 0.58) | 9.5 (2.5 to 27) | 0.5 (−1.5 to 2.25) | Effect on prostate cancer in TRAMP mice (prostate cancer): inhibited initiation, progression, and metastasis of prostate cancer; Median plasma values of CURC and its metabolites ([1]; male, 14 day): 0.0 ng/mL
3 | COc1cc(/C=C/C(=O)CC(=O)/C=C/c2ccc(O)c(OC)c2)ccc1O [Curcumin, curcumin] | Minimal amounts of the parent curcumin compound and large amounts of curcumin glucuronide | −1.0 (−3.25 to 0.0) | 2.0 (−2.0 to 3.3) | 0.05 (−0.05 to 0.2) | −2.0 (−5.5 to 9.3) | −1.5 (−4.3 to 0.0) | −0.1 (−0.3 to 0.0) | 0.2 (−0.15 to 0.32) | −0.5 (−1.3 to 0.8) | 0.07 (−0 07 to 0.16) | −5.5 (−12.0 to 4.5) | 0.25 (−1.45 to 2.35) | 0.20 (−0.30 to 0.55) | 7.0 (−5 to 31.5) | 0.0 (−1.5 to 1.0) | Relationship To Study Treatment [3]: Unlikely; GFR after 2 weeks, individual participant ([2]; curcumin arm participant baseline 45, CurcUA participant baseline 76): 46; Difference in White blood cell (WBC) [2, 4]: 0.15 (−0.43 to 0.68)
